The target of assay [1] is T1, Cytochrome P450 1A2 (Homo sapiens, UniProt P05177).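 Note: PubChem cytochrome P450 panel assay, CYP1A2 panel member.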
T1 sequence (P05177 whole entry): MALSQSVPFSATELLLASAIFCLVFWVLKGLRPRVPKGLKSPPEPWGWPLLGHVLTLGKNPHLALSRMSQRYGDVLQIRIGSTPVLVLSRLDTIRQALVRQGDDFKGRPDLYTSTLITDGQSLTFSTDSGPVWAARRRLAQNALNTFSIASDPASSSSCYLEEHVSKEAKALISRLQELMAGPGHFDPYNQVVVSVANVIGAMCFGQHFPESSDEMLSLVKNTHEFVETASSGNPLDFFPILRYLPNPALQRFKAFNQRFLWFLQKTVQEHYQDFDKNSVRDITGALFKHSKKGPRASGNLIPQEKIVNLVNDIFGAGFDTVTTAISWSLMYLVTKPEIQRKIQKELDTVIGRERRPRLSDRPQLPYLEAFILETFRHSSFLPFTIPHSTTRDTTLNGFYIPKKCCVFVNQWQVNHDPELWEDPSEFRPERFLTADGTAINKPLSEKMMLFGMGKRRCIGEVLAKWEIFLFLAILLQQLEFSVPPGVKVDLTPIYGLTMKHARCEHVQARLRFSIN

Assay [2] can be described thus: NIH-3T3 fibroblast cytotoxicity, dose response, cytotoxicity control, cell-based, fluorescence, Alamar Blue, secondary assay (AID 2327).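 Note: NIH-3T3 mouse fibroblasts cultured with fluconazole at 8 µg/mL.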 Type of assay: functional. For orientation: Resazurin is reduced to fluorescent resorufin, in cell work by metabolically active cells.
The target of assay [3] is Cytochrome P450 2C9 (Homo sapiens, UniProt P11712).
Sequence of Cytochrome P450 2C9 (P11712 whole entry): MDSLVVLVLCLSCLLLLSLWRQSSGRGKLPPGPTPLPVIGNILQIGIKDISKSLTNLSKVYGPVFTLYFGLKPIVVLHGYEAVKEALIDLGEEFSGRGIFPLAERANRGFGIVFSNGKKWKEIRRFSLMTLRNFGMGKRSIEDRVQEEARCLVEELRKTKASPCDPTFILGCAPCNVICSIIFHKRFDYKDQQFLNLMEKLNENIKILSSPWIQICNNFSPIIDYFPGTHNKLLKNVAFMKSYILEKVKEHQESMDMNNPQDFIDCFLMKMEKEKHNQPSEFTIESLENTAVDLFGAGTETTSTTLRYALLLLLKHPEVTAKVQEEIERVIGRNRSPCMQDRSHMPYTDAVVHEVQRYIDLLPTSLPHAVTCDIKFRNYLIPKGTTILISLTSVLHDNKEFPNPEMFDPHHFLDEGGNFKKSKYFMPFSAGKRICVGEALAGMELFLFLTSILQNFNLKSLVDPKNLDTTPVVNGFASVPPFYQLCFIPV
Assay [4] addresses T2, Long-chain-fatty-acid--AMP ligase FadD28 (Mycobacterium tuberculosis, UniProt P9WQ59).
T2 sequence (P9WQ59 whole entry): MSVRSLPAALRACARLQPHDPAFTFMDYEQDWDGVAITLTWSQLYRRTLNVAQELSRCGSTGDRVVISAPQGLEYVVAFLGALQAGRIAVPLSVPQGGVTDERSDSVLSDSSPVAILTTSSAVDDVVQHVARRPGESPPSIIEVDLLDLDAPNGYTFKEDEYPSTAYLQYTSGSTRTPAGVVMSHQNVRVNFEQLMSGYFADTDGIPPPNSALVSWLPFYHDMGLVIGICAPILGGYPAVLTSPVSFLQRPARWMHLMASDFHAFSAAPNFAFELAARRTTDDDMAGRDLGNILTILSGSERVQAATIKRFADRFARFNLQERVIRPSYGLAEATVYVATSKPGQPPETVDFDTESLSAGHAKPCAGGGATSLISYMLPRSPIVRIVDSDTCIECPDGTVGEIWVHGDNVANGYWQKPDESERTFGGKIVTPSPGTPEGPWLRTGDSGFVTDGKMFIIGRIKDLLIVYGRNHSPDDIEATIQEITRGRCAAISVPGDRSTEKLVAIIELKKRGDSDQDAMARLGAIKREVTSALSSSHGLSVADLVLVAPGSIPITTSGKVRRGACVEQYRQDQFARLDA
In words: Fluorescence polarization aasay to screen for inhibitors that compete for the binding of FadD28 to a bisubstrate Measured in Biochemical System Using Plate Reader - 2147-01_Inhibitor_Dose_CherryPick_Activity. In kind it is functional, Mycobacterium tuberculosis H37Rv. A general note: In fluorescence polarisation assays a small probe gives low polarisation when free and higher when bound to something large.

For assay [5], the target named is T3, Carboxy-terminal domain RNA polymerase II polypeptide A small phosphatase 1 (Homo sapiens, UniProt Q9GZU7).
T3 sequence (Q9GZU7 whole entry): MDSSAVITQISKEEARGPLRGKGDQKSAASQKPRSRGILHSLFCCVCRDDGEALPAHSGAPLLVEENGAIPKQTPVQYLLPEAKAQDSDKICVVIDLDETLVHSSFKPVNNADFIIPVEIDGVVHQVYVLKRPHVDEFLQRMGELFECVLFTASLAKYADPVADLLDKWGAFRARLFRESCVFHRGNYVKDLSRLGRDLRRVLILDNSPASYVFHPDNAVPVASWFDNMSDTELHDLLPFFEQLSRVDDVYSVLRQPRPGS
The assay is described as follows: CTDSP1 inhibitors, concentration-response, biochemical, absorbance readout, ultra-high-throughput screen actives (AID 540297). Type of assay: functional.

The target in assay [6] is T4, Sentrin-specific protease 8 (Homo sapiens, UniProt Q96LD8).
T4 sequence (Q96LD8 whole entry): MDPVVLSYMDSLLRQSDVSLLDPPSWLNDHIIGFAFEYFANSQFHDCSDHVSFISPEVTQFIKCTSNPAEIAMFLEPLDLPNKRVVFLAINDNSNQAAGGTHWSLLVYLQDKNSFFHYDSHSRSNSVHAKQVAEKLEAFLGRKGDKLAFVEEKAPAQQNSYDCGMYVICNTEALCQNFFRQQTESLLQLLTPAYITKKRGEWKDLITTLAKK
In kind it is functional.

Assay [7] is described as follows: Luminescence Cell-Based Dose Retest to Confirm Inhibitors of Cancer Stem Cells. [Related pubchem assays (depositor defined):AID2717, AID2721]. In kind it is functional, Homo sapiens. The conditions noted are these: Homo sapiens.
A short description of assay [8]: DRD fibroblast viability loss – cell-based, non-viral oncogenic, luminescence, dose response (AID 1934). In kind it is functional. Particulars: Homo sapiens.
Assay [9] can be described thus: THP-1 cell cytotoxicity, dose response, cytotoxicity control for non-replicating M. tuberculosis project (AID 489025). In kind it is functional.
For assay [10], the system named is BJ. In words: BJ-TERT fibroblast viability loss – cell-based, RAS-independent, luminescence, dose response (AID 1933). In kind it is functional. Particulars: Homo sapiens.
The test system of assay [11] is BJ. The assay is described as follows: cells. Type of assay: functional, cell-based. The conditions noted are these: Homo sapiens.
In assay [12] the target is Genome polyprotein (dengue virus type 2, UniProt P29990). In words: flavivirus cap methylation enzyme inhibition – biochemical, confirmation dose response, primary screen (AID 588689). Type of assay: functional.
Sequence of Genome polyprotein (P29990 2492-3391 limits assumed): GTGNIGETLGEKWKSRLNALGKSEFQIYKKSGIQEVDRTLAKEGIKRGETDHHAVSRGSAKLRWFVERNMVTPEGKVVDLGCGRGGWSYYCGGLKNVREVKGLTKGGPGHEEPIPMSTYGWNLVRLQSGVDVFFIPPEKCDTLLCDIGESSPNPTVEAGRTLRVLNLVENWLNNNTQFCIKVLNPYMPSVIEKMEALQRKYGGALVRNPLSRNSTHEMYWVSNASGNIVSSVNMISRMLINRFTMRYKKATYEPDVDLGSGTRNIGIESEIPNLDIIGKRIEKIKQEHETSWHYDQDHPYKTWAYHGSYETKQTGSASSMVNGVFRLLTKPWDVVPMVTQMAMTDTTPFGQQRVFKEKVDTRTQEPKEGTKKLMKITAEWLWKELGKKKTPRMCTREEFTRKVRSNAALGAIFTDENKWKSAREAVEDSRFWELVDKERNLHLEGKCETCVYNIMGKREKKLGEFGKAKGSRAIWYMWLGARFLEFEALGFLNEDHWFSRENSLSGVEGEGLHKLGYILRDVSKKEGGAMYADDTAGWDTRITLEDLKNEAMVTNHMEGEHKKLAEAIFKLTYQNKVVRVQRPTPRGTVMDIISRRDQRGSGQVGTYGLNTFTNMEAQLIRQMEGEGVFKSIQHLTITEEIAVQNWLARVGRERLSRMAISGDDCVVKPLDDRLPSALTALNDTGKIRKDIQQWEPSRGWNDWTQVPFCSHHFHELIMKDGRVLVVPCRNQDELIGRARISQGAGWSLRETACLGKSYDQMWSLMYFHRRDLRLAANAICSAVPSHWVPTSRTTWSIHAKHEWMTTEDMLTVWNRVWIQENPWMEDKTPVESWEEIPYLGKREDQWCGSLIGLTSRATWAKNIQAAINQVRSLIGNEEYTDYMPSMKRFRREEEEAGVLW
The nature of assay [13]: cells. In kind it is functional.
In assay [14] the test system is BJ. The assay is described as follows: BJ-TERT-LT-ST fibroblast viability loss – cell-based, RAS-independent, luminescence, dose response (AID 1935).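 Note: BJ fibroblasts immortalized with TERT plus LT and ST oncogenes.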 Type of assay: functional. Particulars: Homo sapiens.
The target of assay [15] is T5, Corticotropin-releasing factor receptor 2/Corticotropin-releasing factor-binding protein (Homo sapiens, UniProt P24387+Q13324).
T5 sequence (Q13324 whole entry): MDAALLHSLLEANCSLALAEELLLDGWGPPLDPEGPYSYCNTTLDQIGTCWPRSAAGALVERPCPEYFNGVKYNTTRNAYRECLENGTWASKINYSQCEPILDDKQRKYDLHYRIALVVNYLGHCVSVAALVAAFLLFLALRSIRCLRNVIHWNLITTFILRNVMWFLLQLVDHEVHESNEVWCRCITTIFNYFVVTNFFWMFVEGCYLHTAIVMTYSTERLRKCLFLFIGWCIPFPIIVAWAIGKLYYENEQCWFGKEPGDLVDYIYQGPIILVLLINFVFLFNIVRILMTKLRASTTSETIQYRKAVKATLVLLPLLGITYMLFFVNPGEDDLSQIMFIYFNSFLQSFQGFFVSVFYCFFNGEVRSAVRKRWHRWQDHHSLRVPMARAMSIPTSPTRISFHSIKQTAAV
T5 sequence (P24387 whole entry): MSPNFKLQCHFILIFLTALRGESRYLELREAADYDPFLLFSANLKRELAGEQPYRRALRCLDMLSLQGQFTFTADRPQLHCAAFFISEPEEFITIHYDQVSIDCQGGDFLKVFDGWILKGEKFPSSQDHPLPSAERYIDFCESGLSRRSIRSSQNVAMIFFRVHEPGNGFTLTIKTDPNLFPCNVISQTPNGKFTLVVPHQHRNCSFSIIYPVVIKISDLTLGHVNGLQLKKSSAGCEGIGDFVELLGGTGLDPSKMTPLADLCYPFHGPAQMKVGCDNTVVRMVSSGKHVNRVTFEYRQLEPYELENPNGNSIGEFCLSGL
The assay is described as follows: activators of CRF receptor 2 with binding protein – uHTS hits, confirmation (AID 602473). In kind it is functional. The conditions noted are these: read-out: EC50_Mean.

The target in assay [16] is Kallikrein-7 (Homo sapiens, UniProt P49862). In words: Fluorescence Intensity-based biochemical primary high throughput dose response assay to identify activators of kallikrein-7 (K7) zymogen.
Sequence of Kallikrein-7 (P49862 whole entry): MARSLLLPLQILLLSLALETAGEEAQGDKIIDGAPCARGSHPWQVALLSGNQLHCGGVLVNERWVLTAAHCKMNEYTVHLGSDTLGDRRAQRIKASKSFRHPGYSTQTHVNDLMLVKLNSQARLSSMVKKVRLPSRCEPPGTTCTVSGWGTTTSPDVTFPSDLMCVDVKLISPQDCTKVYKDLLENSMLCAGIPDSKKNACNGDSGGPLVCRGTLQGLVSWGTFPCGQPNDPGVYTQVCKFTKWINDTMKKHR

Activity calls are given as the source filed them.

Consider `CC(C)=C1C(=O)NN(c2ccc(F)c(Cl)c2)C1=O`, for which the figures for the AC50 in assay [1], in assay [3] and in assay [4] were 31.6 µM (inconclusive), 20 µM (inconclusive) and > 100 µM (inactive), respectively. Moreover, the EC50 in assay [2] was > 160 µM (inactive).

In the case of `C=C(C)C(=O)N1CC2(CC(c3cccc(NC(=O)/C=C\C=C/C)c3)=NO2)C[C@H]1C(N)=O` (stereo partly specified), the IC50 (as a rule, the concentration that gives 50% inhibition) in [5] is 9.08 µM (active). Same read-out and setting: for `CCOC(=O)CC1(C)OCC(C[N+]2(C)CCCCC2)O1` (stereo unspecified) the value was 5.57 µM (active); for `Cc1cc(C=O)c(C)n1-c1cccc(C(=O)O)c1`, 6.32 µM (active); for `O=C1N=C(Nc2cccnc2)S/C1=C/c1ccc(F)cc1`, 18.4 µM (active). `Cc1nc2ccccc2n1/N=C/c1ccc([N+](=O)[O-])o1`: in assay [6], the IC50 is 38.4 µM (active). Besides, in assay [7], the AC50 (as a rule, the midpoint of the concentration-response curve, whichever way the signal moves) is 10.9 µM (active). As for `CN1C(=O)NC(=O)/C(=C/c2ccc([N+](=O)[O-])s2)C1=O`, the EC50 in assay [8] is > 150 µM (not active); in assay [10], 11.2 µM (active); in assay [11], > 150 µM (not active); in assay [14] it was > 150 µM (not active). In addition, the CC50 (usually the concentration giving 50% cytotoxicity) in assay [9] is 33.8 µM (active). Besides, the concentration for half-maximal inhibition (IC50) in [12] is 17.4 µM (active); in [13] it was 23.2 µM (active). With `O=C(NC1CC1)C1CCN(S(=O)(=O)c2cc([N+](=O)[O-])ccc2Cl)CC1`, the IC50 in assay [5] is 2.49 µM (active).

With `O=C(O)c1cc(Cl)ccc1-c1ccc(/C=C/c2cc(C(F)(F)F)nc(O)n2)o1`, the AC50 in assay [4] is > 100 µM (inactive). Besides, the EC50 in [15] was 6.29 µM (active). As to `CC(C)OCCOc1ccc2oc(-c3ccco3)cc(=O)c2c1`, in [5], the IC50 was 21.7 µM (active). For the same molecule, the EC50 in [16] was > 7.72 µM (active). Consider `CC(C)(C)NS(=O)(=O)c1ccc(NC(=O)CS(=O)(=O)Cc2ccccc2)cc1`, for which the AC50 in [4] was > 100 µM (inactive). On the same count and under the same terms, for `COCCn1c(=S)[nH]c2sc3c(c2c1=O)CCC(C)C3` (stereo unspecified) the value was 53.8 µM (active). In the case of `NS(=O)(=O)c1ccc(NC(=O)C2Cc3ccccc3CN2C(=O)c2ccco2)cc1` (stereo unspecified), the IC50 in [5] was 6.06 µM (active). For `O=C(NNS(=O)(=O)c1ccc(F)cc1)c1cc(Cl)ccc1O`, the AC50 in [4] was > 100 µM (inactive).

The values above are taken from ChEMBL document CHEMBL1201862, “PubChem BioAssay data set” (2004).
